The record followed here is paper PMC5602100, “Retro analog concept: comparative study on physico-chemical and biological properties of selected antimicrobial peptides” (Amino Acids, 2017).

Like-named read-outs stand apart in the source and are kept apart here. Ends that are not written are not given here.

One data set relates to C. albicans ATCC 10231. How it is done:
(§1) The minimal inhibitory concentrations (MICs) for bacteria and fungi were determined by the broth microdilution method according to the Clinical and Laboratory Standards Institute (CLSI) protocol (Clinical and Laboratory Standards Institute (CLSI) [2002], [2012]). For this purpose, the initial inoculums of bacteria (5 × 10^5 CFU/mL) in Mueller–Hinton Broth (Biocorp, Warsaw, Poland) were exposed to the ranging concentrations of compounds (0.125–256 µg/mL) and incubated for 18 h at 37 °C. In case of fungi, the initial inoculums of 2 × 10^3 CFU/mL in RPMI-1640 (Sigma-Aldrich, Steinheim, Germany) were exposed to the ranging concentrations of compounds (0.5–256 µg/mL) and incubated for 24 h at 37 °C. The experiments were conducted on 96-well microtiter plates, with the final volume of 100 µL. Cell densities were adjusted spectrophotometrically (Multiskan™ GO Microplate Spectrophotometer, Thermo Scientific) at the wavelengths of 600 nm for bacteria and 530 nm for fungi. The MIC was taken as the lowest drug concentration at which a noticeable growth of microorganisms was inhibited. Reference strains of bacteria: Escherichia coli ATCC 25922, E. coli ATCC 23506, Enterococcus faecalis PCM 2673, Klebsiella pneumoniae ATCC 700603, Pseudomonas aeruginosa ATCC 9027, Staphylococcus aureus ATCC 25923, S. aureus 9144, Streptococcus pneumoniae ATCC 49619, and fungi: Aspergillus niger ATCC 16404, Candida albicans ATCC 10231, and C. glabrata ATCC 15126 were obtained from Polish Collection of Microorganisms (PCM, Polish Academy of Sciences, Wroclaw, Poland) and from American Type Culture Collection (ATCC). All experiments were conducted in triplicate.

Another data set relates to E. coli ATCC 25922. The protocol:
as §1

A further data set concerns S. aureus ATCC 9144. The protocol:
as §1

The test system of the next data set is S. pneumoniae ATCC 49619. The protocol: as §1
The subject of the next data set is A. niger ATCC 16404. How it is done:
as §1

For another data set, the system named is C. glabrata ATCC 15126. The protocol:
as §1

A further data set has as its system S. aureus ATCC 25923. How it is done: as §1
Data set [1] relates to K. pneumoniae ATCC 700603. The protocol: as §1
A further data set has as its system E. faecalis PCM 2673. How it is done: as §1
The subject of a further data set is E. coli ATCC 23506. How it is done:
as §1

The subject of the next data set is P. aeruginosa ATCC 9027. The protocol: as §1
Data set [2] deals with human red blood cells (RBCs). Description: Hemolysis assay. Type of data set: cell-based. The conditions noted are these: fresh human RBCs 4% (v/v) in PBS, 60 min at 37 °C, absorbance 540 nm, 100% control 1% Triton-X 100, triplicate. The protocol: The hemolysis assay was conducted according to the procedure described previously in the literature (Avrahami and Shai [2004]). Fresh human red blood cells (RBCs) with EDTA as anticoagulant were rinsed three times with a phosphate-buffer saline (PBS) by centrifugation at 800×g for 10 min and resuspended in PBS. Serial dilution of peptides (1–512 µg/mL) was conducted in PBS on 96-well plates. Then the stock solution of RBCs was added to reach a final volume of 100 µL with a 4% concentration of erythrocytes (v/v). The control wells for 0 and 100% hemolysis consisted of RBCs suspended in PBS and 1% of Triton-X 100, respectively. Subsequently, the plates were incubated for 60 min at 37 °C and then centrifuged at 800×g for 10 min at 4 °C (Sorvall ST 16R Centrifuge, Thermo Scientific). After centrifugation the supernatant was carefully […] to new microtiter plates and the release of hemoglobin was monitored by measurement of absorbance at 540 nm (Multiskan™ GO Microplate Spectrophotometer, Thermo Scientific). All experiments were conducted in triplicate.

Setting [3] is: broth microdilution (CLSI), 2 × 10^3 CFU/mL in RPMI-1640, 0.5–256 µg/mL, 24 h at 37 °C, triplicate.
Setting [4] is: broth microdilution (CLSI), 5 × 10^5 CFU/mL in Mueller–Hinton Broth, 0.125–256 µg/mL, 18 h at 37 °C, triplicate.

For the substance LGGIVSAVKKIVDFLG-NH2 [r-citropin 1.1], in the data set with C. albicans ATCC 10231 (ATCC 10231, 24 h), the “MIC, C. albicans ATCC 10231” value amounted to 128 µg/mL. For the same substance, in the data set on E. coli ATCC 25922 (ATCC 25922, 18 h), the “MIC, E. coli ATCC 25922” value was 64 µg/mL. The “MIC, S. aureus ATCC 9144” value with S. aureus ATCC 9144 (ATCC 9144, 18 h) turned out to be 64 µg/mL. For the same substance, the “MIC, S. pneumoniae ATCC 49619” value in the data set on S. pneumoniae ATCC 49619 (ATCC 49619, 18 h) is on record as 128 µg/mL. Further, the “MIC, A. niger ATCC 16404” value with A. niger ATCC 16404 (ATCC 16404, 24 h) came to 256 µg/mL. Also, in the data set on C. glabrata ATCC 15126 (ATCC 15126, 24 h), the “MIC, C. glabrata ATCC 15126” value was 256 µg/mL. Also, the “MIC, S. aureus ATCC 25923” value against S. aureus ATCC 25923 (ATCC 25923, 18 h) is recorded as 64 µg/mL. In addition, the “MIC, K. pneumoniae ATCC 700603” value in data set [1] (ATCC 700603, 18 h) was 32 µg/mL. In the data set on E. faecalis PCM 2673 (PCM 2673, 18 h), the “MIC, E. faecalis PCM 2673” value turned out to be 128 µg/mL. In addition, the “MIC, E. coli ATCC 23506” value against E. coli ATCC 23506 (ATCC 23506, 18 h) came to 128 µg/mL.
On to GIGKFLKKAKKFGKAFVKILKK-NH2 [pexiganan], for which the “MIC, P. aeruginosa ATCC 9027” value with P. aeruginosa ATCC 9027 (ATCC 9027, 18 h) is reported as 2 µg/mL. The “MIC, C. albicans ATCC 10231” value against C. albicans ATCC 10231 (ATCC 10231, 24 h) came out at 256 µg/mL. Besides, the “MIC, E. coli ATCC 25922” value against E. coli ATCC 25922 (ATCC 25922, 18 h) turned out to be 4 µg/mL. Also, the “MIC, S. aureus ATCC 9144” value with S. aureus ATCC 9144 (ATCC 9144, 18 h) was found to be 8 µg/mL. In the data set on S. pneumoniae ATCC 49619 (ATCC 49619, 18 h), the “MIC, S. pneumoniae ATCC 49619” value came to 1 µg/mL. Also, the “MIC, A. niger ATCC 16404” value against A. niger ATCC 16404 (ATCC 16404, 24 h) came to 16 µg/mL. Also, the “MIC, C. glabrata ATCC 15126” value against C. glabrata ATCC 15126 (ATCC 15126, 24 h) stood at 256 µg/mL. Besides, the “MIC, S. aureus ATCC 25923” value in the data set on S. aureus ATCC 25923 (ATCC 25923, 18 h) was 8 µg/mL. Also, in data set [1] (ATCC 700603, 18 h), the “MIC, K. pneumoniae ATCC 700603” value came out at 1 µg/mL. Further, in the data set with E. faecalis PCM 2673 (PCM 2673, 18 h), the “MIC, E. faecalis PCM 2673” value is 16 µg/mL. For the same substance, the “MIC, E. coli ATCC 23506” value with E. coli ATCC 23506 (ATCC 23506, 18 h) turned out to be 2 µg/mL.
Turning to ILRWPWWPWRRK-NH2 [omiganan], the “MIC, P. aeruginosa ATCC 9027” value in the data set with P. aeruginosa ATCC 9027 (ATCC 9027, 18 h) came out at 16 µg/mL. The “MIC, C. albicans ATCC 10231” value against C. albicans ATCC 10231 (setting [3]) was 128 µg/mL. In the data set on E. coli ATCC 25922 (ATCC 25922, 18 h), the “MIC, E. coli ATCC 25922” value turned out to be 16 µg/mL. In addition, in the data set on S. aureus ATCC 9144 (ATCC 9144, 18 h), the “MIC, S. aureus ATCC 9144” value is listed as 16 µg/mL. The “MIC, S. pneumoniae ATCC 49619” value against S. pneumoniae ATCC 49619 (ATCC 49619, 18 h) is recorded as 8 µg/mL. Further, in the data set on A. niger ATCC 16404 (setting [3]), the “MIC, A. niger ATCC 16404” value stood at 64 µg/mL. The “MIC, C. glabrata ATCC 15126” value in the data set on C. glabrata ATCC 15126 (setting [3]) is 128 µg/mL. In the data set on S. aureus ATCC 25923 (ATCC 25923, 18 h), the “MIC, S. aureus ATCC 25923” value came to 16 µg/mL. Also, the “MIC, K. pneumoniae ATCC 700603” value in data set [1] (setting [4]) came to 8 µg/mL. Besides, the “MIC, E. faecalis PCM 2673” value in the data set on E. faecalis PCM 2673 (PCM 2673, 18 h) is reported as 16 µg/mL. For the same substance, the “MIC, E. coli ATCC 23506” value against E. coli ATCC 23506 (ATCC 23506, 18 h) came to 32 µg/mL.
For the substance “KKLIKVFAKGFKKAKKLFKGIG-NH2 [r-pexiganan]”, the “MIC, P. aeruginosa ATCC 9027” value in the data set on P. aeruginosa ATCC 9027 (ATCC 9027, 18 h) amounted to 2 µg/mL. Also, the “MIC, C. albicans ATCC 10231” value with C. albicans ATCC 10231 (ATCC 10231, 24 h) amounted to 256 µg/mL. Further, the “MIC, E. coli ATCC 25922” value in the data set on E. coli ATCC 25922 (ATCC 25922, 18 h) is recorded as 8 µg/mL. Moreover, the “MIC, S. aureus ATCC 9144” value in the data set with S. aureus ATCC 9144 (ATCC 9144, 18 h) amounted to 64 µg/mL. Besides, the “MIC, S. pneumoniae ATCC 49619” value with S. pneumoniae ATCC 49619 (ATCC 49619, 18 h) is 4 µg/mL. Also, in the data set with A. niger ATCC 16404 (ATCC 16404, 24 h), the “MIC, A. niger ATCC 16404” value stood at 32 µg/mL. Besides, in the data set on C. glabrata ATCC 15126 (ATCC 15126, 24 h), the “MIC, C. glabrata ATCC 15126” value came out at 128 µg/mL. Moreover, the “MIC, S. aureus ATCC 25923” value with S. aureus ATCC 25923 (ATCC 25923, 18 h) amounted to 128 µg/mL. Also, the “MIC, K. pneumoniae ATCC 700603” value in data set [1] (ATCC 700603, 18 h) is listed as 0.25 µg/mL. In the data set with E. faecalis PCM 2673 (PCM 2673, 18 h), the “MIC, E. faecalis PCM 2673” value is 64 µg/mL. Also, the “MIC, E. coli ATCC 23506” value against E. coli ATCC 23506 (ATCC 23506, 18 h) is 2 µg/mL.
In the case of LVKLVAGIKKFLKWK-NH2 [r-CAMEL], the “MIC, P. aeruginosa ATCC 9027” value against P. aeruginosa ATCC 9027 (setting [4]) came out at 8 µg/mL. In the data set on C. albicans ATCC 10231 (setting [3]), the “MIC, C. albicans ATCC 10231” value is 256 µg/mL. In addition, the “MIC, E. coli ATCC 25922” value in the data set on E. coli ATCC 25922 (setting [4]) is 128 µg/mL. Besides, the “MIC, S. aureus ATCC 9144” value in the data set on S. aureus ATCC 9144 (setting [4]) was determined as 64 µg/mL. The “MIC, S. pneumoniae ATCC 49619” value against S. pneumoniae ATCC 49619 (setting [4]) was 128 µg/mL. In the data set on A. niger ATCC 16404 (setting [3]), the “MIC, A. niger ATCC 16404” value came out at 256 µg/mL. Besides, the “MIC, C. glabrata ATCC 15126” value with C. glabrata ATCC 15126 (setting [3]) is over 256 µg/mL. The “MIC, S. aureus ATCC 25923” value against S. aureus ATCC 25923 (setting [4]) amounted to 128 µg/mL. The “MIC, K. pneumoniae ATCC 700603” value in data set [1] (setting [4]) was determined as 2 µg/mL. The “MIC, E. faecalis PCM 2673” value in the data set on E. faecalis PCM 2673 (setting [4]) amounted to 64 µg/mL. Also, in the data set with E. coli ATCC 23506 (setting [4]), the “MIC, E. coli ATCC 23506” value was found to be 64 µg/mL. Besides, the “rate of hemolysis at MIC concentrations” value in [2] is “below 10%”.
